Laboratory results taken from the supplement of paper PMC10307832.

Legend:
Test in all cases: relative viability (nuclei count vs DMSO), 5 days (fraction); higher = more cells survive
[1] = compound: CCC1=CN=CN=C1N2CCN(CC2)CC3=NC4=C(N3)C=C(C=C4)C(F)(F)F + CC(C)C[C@H](NC(=O)[C@H](Cc1ccccc1)NC(=O)c1cnccn1)B(O)O [Bortezomib] (partner 0.002 µM)
In short: (§1)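 Lung cancer cell lines in 1536-well plates were dosed by pin tool the day after seeding, either with one drug alone or with a fixed anchor-drug dose plus five library-drug doses (not always all listed) in √10 steps. After 5 days, cells were fixed and their nuclei stained in one step (final 0.05% Triton X-100, 1% formaldehyde, 1 ug/ml Hoechst), then counted on 4× images. Relative viability is the nuclei count in treated wells divided by that in vehicle wells. Values are medians of duplicate plates.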

[2] = compound: CCn1c(-c2nonc2N)nc2cnc(Oc3cccc(NC(=O)c4ccc(OCCN5CCOCC5)cc4)c3)cc21 + Nc1ncn([C@H]2C[C@H](O)[C@@H](CO)O2)c(=O)n1 [Decitabine] (partner 2 µM)
In short: as §1

[3] = compound: CCC1=CN=CN=C1N2CCN(CC2)CC3=NC4=C(N3)C=C(C=C4)C(F)(F)F + C[C@@H](Oc1cc(-c2cnn(C3CCNCC3)c2)cnc1N)c1c(Cl)ccc(F)c1Cl [Crizotinib] (partner 1 µM)
In short: as §1

[4] = compound: N=C1NC(=O)/C(=C/c2ccc(O)cc2)S1 [Mirin] + CCNC(=O)c1noc(-c2cc(C(C)C)c(O)cc2O)c1-c1ccc(CN2CCOCC2)cc1 [Luminespib] (partner 0.01 µM)
In short: as §1

Cell Line | relative viability ([1]; first compound 0.04 µM) | relative viability ([1]; first compound 0.1265 µM) | relative viability ([1]; first compound 0.4 µM) | relative viability ([1]; first compound 1.265 µM) | relative viability ([1]; first compound 4 µM) | relative viability ([2]; first compound 0.04 µM) | relative viability ([2]; first compound 0.1265 µM) | relative viability ([2]; first compound 0.4 µM) | relative viability ([2]; first compound 1.265 µM) | relative viability ([2]; first compound 4 µM) | relative viability ([3]; first compound 0.04 µM) | relative viability ([3]; first compound 0.1265 µM) | relative viability ([3]; first compound 0.4 µM) | relative viability ([3]; first compound 1.265 µM) | relative viability ([3]; first compound 4 µM) | relative viability ([4]; first compound 0.25 µM) | relative viability ([4]; first compound 0.7906 µM) | relative viability ([4]; first compound 2.5 µM) | relative viability ([4]; first compound 7.906 µM) | relative viability ([4]; first compound 25 µM)
LXF-289 | 1.07 | 0.953 | 0.971 | 1.04 | 0.917 | 0.359 | 0.403 | 0.353 | 0.384 | 0.318 | 0.823 | 0.754 | 0.825 | 0.781 | 0.87 | 0.662 | 0.689 | 0.651 | 0.666 | 0.634
HCC-827 | 1.01 | 0.997 | 1.02 | 0.95 | 0.953 | 0.343 | 0.397 | 0.328 | 0.305 | 0.318 | 0.89 | 0.903 | 0.945 | 0.973 | 0.917 | 0.673 | 0.665 | 0.724 | 0.841 | 1.03
EMC-BAC-2 | 1.07 | 1.01 | 1.05 | 0.917 | 1.15 | 0.957 | 0.894 | 0.771 | 0.386 | 0.465 | 0.779 | 0.734 | 0.77 | 0.889 | 1.03 | 1.08 | 1.13 | 1.13 | 1.17 | 1.1
NCI-H596 | 1.03 | 1.11 | 0.846 | 0.946 | 1.15 | 1.01 | 1.04 | 0.969 | 0.926 | 0.932 | 0.91 | 1.06 | 0.971 | 1 | 1.14 | 0.931 | 0.984 | 1.06 | 0.955 | 0.905
NCI-H1755 | 1.02 | 0.882 | 0.953 | 0.816 | 1.06 | 0.732 | 0.72 | 0.729 | 0.719 | 0.654 | 0.963 | 0.809 | 0.948 | 0.89 | 1.06 | 0.396 | 0.519 | 0.497 | 0.407 | 0.358
NCI-H1993 | 1.16 | 0.952 | 0.927 | 1.25 | 1.01 | 0.557 | 0.616 | 0.652 | 0.496 | 0.531 | 0.835 | 0.813 | 0.883 | 0.873 | 0.856 | 0.777 | – | 0.778 | 0.729 | 0.734
NCI-H2347 | 1.07 | 0.92 | 0.724 | – | 1.04 | 0.607 | 0.565 | 0.624 | 0.461 | 0.434 | 0.776 | 0.684 | 0.759 | 0.601 | 0.749 | 0.33 | 0.295 | 0.372 | 0.409 | 0.575
NCI-H1437 | 0.528 | 0.484 | 0.431 | 0.474 | 0.504 | 0.489 | 0.61 | 0.547 | 0.499 | 0.426 | 0.969 | 0.799 | 0.964 | 0.903 | 0.752 | 1.13 | 1.11 | 1.08 | 1.09 | 1.11
